Measurements as given in patent US4447439A, “2-Cyclic amino-2-(1,2-benzisoxazol-3-yl)acetic acid ester derivatives, process for the preparation thereof and composition containing the same” (priority 1981, dated 1984).
In brackets after ≈: the same amount, converted by molar mass. Counter-ions that a name gives are not always drawn. Like-named read-outs stand apart in the source and are kept apart here.

What was measured:
[1] = test system: section of the ileum (contractile response induced by transmural stimulation); assay: Inhibitory effect on contractile response induced by transmural stimulation (Anti-TMS); assay type: cell-based, male Hartley strain guinea pig; settings: guinea pig ileum, transmural stimulation 5 Hz, 20-30 V, compound applied 20 minutes before; for IC50: Cavia porcellus, read-out: IC50 Anti-TMS (antispasmodic activity in vitro)
Procedure: (1) Inhibitory effect on contractile response induced by transmural stimulation (Anti-TMS)
From male Hartley strain guinea pig, weighing 300-350 g, section of the ileum about 3 cm in length was prepared and mounted in Tyrode's solution kept at 35° C. and oxygenated with 95% O2 --5% CO2, and responses of the ileum were recorded isotonically with an initial tension of 1 g. The ileum was stimulated electrically by the method of W. D. M. Paton [cf. […] The electrode was made of platinum and the intraluminal electrode was used at a frequency of 5 Hz and at a voltage sufficient to give a maximal response (20-30 V). Test compounds were applied 20 minutes before the stimulation.
(§1) In the experiments (1) and (2), each compound was tested in three different concentrations.

[2] = test system: stomach (contractile response induced by carbachol); assay: Inhibitor effect on contractile response induced by carbachol (Anti-Car); parameters: species or system male Wistar strain rats; settings: Rattus norvegicus, iv; anesthetized rats, carbachol 10 μg/kg, i.v.; read-out: ID50 Anti-Car (antispasmodic activity in vivo)
Procedure: (1) Inhibitor effect on contractile response induced by carbachol (Anti-Car)
This effect was examined using the strain gauge force transducer as described by X. B. Pascaud et al. [cf. Am. […] The transducer was sutured on the serosa of the stomach in anesthetized male Wistar strain rats, weighing about 250 g. This transducer can record simultaneously contractions and tone variation of the muscle. The contractile response induced by carbachol (10 μg/kg, i.v.) was estimated before and after administration of test compound. Inhibitory effect of test compound was expressed as a percent inhibition of the response.

[3] = test system: section of the ileum (contractile response induced by acetylcholine); assay: Inhibitor effect on contractile response induced by acetylcholine (Anti-ACh); assay type: cell-based, male Hartley strain guinea pig; settings: guinea pig ileum, acetylcholine 2×10^-8 g/ml, compound applied 2 minutes before; for IC50: Cavia porcellus, read-out: IC50 Anti-ACh (antispasmodic activity in vitro)
Procedure: (2) Inhibitor effect on contractile response induced by acetylcholine (Anti-ACh)
In the same manner as described in the above experiment (1), ileum preparation was prepared and mounted in Tyrode's solution. The response of the ileum to acetylcholine (2×10^-8 g/ml) were recorded isotonically. Test compounds were applied 2 minutes before adding the acetylcholine.
as §1

[4] = test system: spontaneous gastric motility; assay: Inhibitory effect on spontaneous gastric motility (Anti-SGM); parameters: species or system male Wistar strain rats; settings: Rattus norvegicus; conscious rats, fasted 18 hours, oral; read-out: ID50 Anti-SGM (antispasmodic activity in vivo)
Procedure: (2) Inhibitory effect on spontaneous gastric motility (Anti-SGM)
(§2) This effect was examined using male Wistar strain rats, weighing about 250 g, with chronically implanted strain gauge force transducer as mentioned in the experiment (1). The rats were usually allowed to stand for 3-5 days for recovery from the surgery and fasted for 18 hours before experiment. Then, spontaneous gastric motility in conscious rats were recorded and the sum of amplitude of each contraction was calculated every 15 minutes. Inhibitory effect of test compound by oral administration was expressed as a percent inhibition of initial spontaneous motility.

Mydriatic activity = settings: rat, in vivo, po
Text: (§3) This activity was examined according to the method of P. Pelewka [cf.

[5] = Safety index (ED50 of mydriatic activity / ID50 of Anti-SGM); parameters: species or system male Wistar strain rats; settings: rat, in vivo, po
Procedure: as §2, with “motility. ID50 value, i.e., the dose required for 50% inhibition of spontaneous motility, was determined from regression line calculated by the maximum percent inhibition at each dose level.” for “motility.”

Acute lethal toxicity = assay: Acute lethal toxicity; parameters: species or system male and female Jcl:SD strain rats; settings: rat, in vivo, po, single oral, 7 days
in vivo = settings: rat, po
Text: as §3

| Structure (SMILES) | IC50 [1] | IC50 [3] | also measured |
| --- | --- | --- | --- |
| CN1[C@@H]2CC[C@H]1C[C@@H](OC(=O)C(CO)c1ccccc1)C2 (stereo partly shown) [Atropine sulfate, atropine sulfate, reference compound] | 0.035 µg/mL | 0.005 µg/mL | ED50 [2]: 0.0084 mg/kg; ED50 [4]: 1.7 mg/kg; ED50 (Mydriatic activity): 3.5 mg/kg |
| CCN1CCCC(OC(=O)C(c2noc3ccccc23)N2CCCCCC2)C1 (stereo not shown) [Example 3] | 0.11 µg/mL (≈ 0.285 µM) | 0.042 µg/mL (≈ 0.109 µM) | – |
| CN1CCCC(OC(=O)C(c2noc3ccccc23)N2CCCCCC2)C1 (stereo not shown) [Example 8] | 0.11 µg/mL (≈ 0.296 µM) | 0.039 µg/mL (≈ 0.105 µM) | – |
| CN1CCC(OC(=O)C(c2noc3ccccc23)N2CCCCCC2)CC1 (stereo not shown) [Example 16, 1-methyl-4-piperidyl 2-hexamethyleneimino-2-(1,2-benzisoxazol-3-yl)acetate] | 0.034 µg/mL (≈ 0.0915 µM) | 0.023 µg/mL (≈ 0.0619 µM) | – |
| CC[N+]1(C)CCC(OC(=O)C(c2noc3ccccc23)N2CCCCCC2)CC1.[I-] (stereo not shown) [Example 17(i), 1-ethyl-1-methyl-4-[2-hexamethyleneimino-2-(1,2-benzisoxazol-3-yl)acetoxy]piperidinium iodide] | 0.14 µg/mL | – | selectivity ratio ([5]; ED50 of mydriatic activity divided by ID50 of Anti-SGM, read-out: Safety index): > 114; ED50 [2]: 0.0187 mg/kg; ED50 [4]: 26.3 mg/kg; LD50 at 168 h (Acute lethal toxicity; female rats): 6320 mg/kg; LD50 at 168 h (Acute lethal toxicity; male rats): 5430 mg/kg; ED50 (Mydriatic activity): > 3000 mg/kg |
| C[N+]1(C)CCC(OC(=O)C(c2noc3ccccc23)N2CCCCCC2)CC1.[I-] (stereo not shown) [Example 20, 1,1-dimethyl-4-[2-hexamethyleneimino-2-(1,2-benzisoxazol-3-yl)acetoxy]piperidinium iodide] | 0.12 µg/mL | 0.02 µg/mL | – |
| C[N+]1(C)CCC(OC(=O)C(c2noc3ccccc23)N2CCCCC2)CC1.[I-] (stereo not shown) [Example 21, 1,1-Dimethyl-4-[2-piperidino-2-(1,2-benzisoxazol-3-yl)acetoxy]piperidinium iodide] | 0.09 µg/mL | 0.032 µg/mL | – |
| CC[N+]1(C)CCCC(OC(=O)C(c2noc3ccccc23)N2CCCCCC2)C1 (stereo not shown) [Example 22] | 0.096 µg/mL | 0.022 µg/mL | – |
| CC1CCCN(C(C(=O)OC2CC[N+](C)(C)CC2)c2noc3ccccc23)C1 (stereo not shown) [Example 23] | 0.074 µg/mL | 0.036 µg/mL | – |
| C[N+]1(C)CCCC(OC(=O)C(c2noc3ccccc23)N2CCCCCC2)C1 (stereo not shown) [Example 24] | 0.1 µg/mL | 0.036 µg/mL | – |
| C[N+]1(C)CCC(OC(=O)C(c2noc3ccccc23)N2CCCCCCC2)CC1 (stereo not shown) [Example 27] | 0.088 µg/mL | 0.014 µg/mL | – |
| C[N+]1(C)CCC(OC(=O)C(c2noc3ccccc23)N2CCCCCC2)CC1 (stereo not shown) [Example 28] | – | – | IC50 Anti-TMS (antispasmodic activity in vitro) [1]: 0.1 µg/mL; IC50 Anti-ACh (antispasmodic activity in vitro) [3]: 0.013 µg/mL |
| CC[N+]1(C)CCC(OC(=O)C(c2noc3ccccc23)N2CCCCCC2)CC1 (stereo not shown) [Example 30] | 0.18 µg/mL | 0.064 µg/mL | – |
| CC[N+]1(C)CCC(OC(=O)C(c2noc3ccccc23)N2CCCCCC2)CC1 (stereo not shown) [Example 31] | – | – | IC50 Anti-TMS (antispasmodic activity in vitro) [1]: 0.12 µg/mL; IC50 Anti-ACh (antispasmodic activity in vitro) [3]: 0.055 µg/mL |
| CC[N+]1(C)CCC(OC(=O)C(c2noc3ccccc23)N2CCCC2)CC1 (stereo not shown) [Example 33] | 0.18 µg/mL | 0.032 µg/mL | – |
| CC[N+]1(C)CCC(OC(=O)C(c2noc3ccccc23)N2CCCCC2)CC1 (stereo not shown) [Example 34] | – | 0.033 µg/mL | IC50 ([1]; 20 min): 0.044 µg/mL |
| C[N+]1(C)CCC(OC(=O)C(c2noc3ccccc23)N2CCCCC2)CC1 (stereo not shown) [Example 36] | 0.11 µg/mL | 0.029 µg/mL | – |
| CC1CCN(C(C(=O)OC2CC[N+](C)(C)CC2)c2noc3ccccc23)CC1 (stereo not shown) [Example 37] | 0.24 µg/mL | 0.072 µg/mL | – |
| C[N+]1(C)CCC(OC(=O)C(c2noc3ccccc23)N2CCCCCC2)CC1 (stereo not shown) [Example 38] | – | 0.024 µg/mL | IC50 Anti-TMS (antispasmodic activity in vitro) [1]: 0.027 µg/mL |
| C[N+]1(C)CCC(OC(=O)C(c2noc3ccccc23)N2CCCC2)CC1 (stereo not shown) [Example 39] | 0.058 µg/mL | 0.051 µg/mL | – |
| C[N+]1(C)CCC(OC(=O)C(c2noc3ccc(Cl)cc23)N2CCCCCC2)CC1 (stereo not shown) [Example 42] | 0.34 µg/mL | 0.078 µg/mL | – |
| C[N+]1(C)CCC(OC(=O)C(c2noc3ccc(F)cc23)N2CCCCCC2)CC1 (stereo not shown) [Example 44] | 0.29 µg/mL | 0.08 µg/mL | – |
| CCCC[N+]1(C)C2CC(OC(=O)C(CO)c3ccccc3)CC1C1OC12 (stereo not shown) [Scopolamine-N-butyl bromide, scopolamine-N-butyl bromide, reference compound] | 0.44 µg/mL | 0.089 µg/mL | selectivity ratio [5]: 2; ED50 [2]: 0.0201 mg/kg; ED50 [4]: 100 mg/kg; ED50 (in vivo): 227 mg/kg |
